Measured values published in patent US20240239861A1, “GLUCAGON-RECEPTOR SELECTIVE POLYPEPTIDES AND METHODS OF USE THEREOF” (i2O Therapeutics, Inc., priority 2016, published 2024).
Entries after “also recorded” stand apart in the source; their conditions may differ. Read-outs that look alike come from different tables or passages of the source. Where a SMILES comes first, the peptide text is derived from it. Bridges are numbered along the chain shown (N, C = ends).

How the values were obtained:
[1] = 3-hour intravenous infusion pharmacokinetics, peptide clearance (CL); conditions: male, rat, in vivo
human GLP-1R = human GLP-1R (Homo sapiens, UniProt P43220); assay: Peptide-receptor mediated cAMP accumulation (LANCE Ultra cAMP) in CHO-K1 cells transfected with human GLP-1R; format: cell-based
human GLP-1R, sequence (P43220 24-463): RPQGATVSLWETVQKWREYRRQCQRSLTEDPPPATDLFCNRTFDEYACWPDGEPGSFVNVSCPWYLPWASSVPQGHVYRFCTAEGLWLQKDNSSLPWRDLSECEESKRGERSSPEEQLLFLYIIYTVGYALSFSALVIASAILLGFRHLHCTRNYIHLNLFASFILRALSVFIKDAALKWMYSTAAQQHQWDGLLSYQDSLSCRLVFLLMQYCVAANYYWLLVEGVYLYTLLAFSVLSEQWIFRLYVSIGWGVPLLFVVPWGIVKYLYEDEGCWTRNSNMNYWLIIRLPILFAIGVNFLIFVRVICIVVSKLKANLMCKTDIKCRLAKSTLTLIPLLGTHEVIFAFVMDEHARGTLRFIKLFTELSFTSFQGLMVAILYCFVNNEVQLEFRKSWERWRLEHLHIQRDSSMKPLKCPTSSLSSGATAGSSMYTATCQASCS

[2] = Clearance at intravenous infusion rate of 10 mcg/kg/hr
[3] = Steady state plasma concentrations of glucagon analogs given subcutaneously by osmotic minipump; format: in vivo, rat
[4] = Stability in water or saline at 37° C. and room temperature, 30 days, LC/MS and HPLC purity; format: physicochemical
Text: Samples were withdrawn at a regular interval for 30 days and analyzed by LC/MS and HPLC for determination of purity and mass of the degradation product.

[5] = Body weight change in DIO Long Evans rats after 13 days continuous dosing by osmotic pump; conditions: for weight loss compared to vehicle control after 13 days: DIO LE rats, single agent; for ED50 of weight loss: DIO rats, 13 days infusion, fits sharing vehicle response and common maximum (FIG. 9); for common maximal weight loss response: over 13 days, fits constrained to share it (FIG. 9)
Protocol: Rats were 15-17 weeks old at the start of the study. The rats were housed 1 per cage and given ad libitum access to high fat diet (Harlan TD.95217, 4.3 kcal/g) and water, maintained on a 12 hr light/dark cycle from 5:00 AM to 5:00 PM at 21° C. and 50% relative humidity and allowed to acclimate for at least 10 days prior to the surgeries. Baseline fat mass and non-fat mass measurements were taken 3 days before the start of peptide infusion using a QMR instrument (Echo Medical Systems, Houston, TX). Body weight measurements were taken 2 times/week starting three days before the surgery. Rats were randomized according to their percent body fat mass and/or body weight into the various treatment groups (n=4-6 rats/group). […] On the day of surgery, rats were anesthetized under isoflurane and the dorsal skin surface was shaved and cleansed. Rats were injected SC with Flunexin (2.5 mg/kg). A 1-2 cm surgical incision was made between the scapulae. Using blunt dissection, a 2-3 cm subcutaneous tunnel was created into which the sterile, filled, mini-osmotic pump was introduced. The skin opening was closed with a skin staple. Each rat was implanted with either one or two osmotic pumps containing vehicle or peptide according to their treatment group. All the data are presented as mean±SEM. The data were analyzed in Excel and/or Prism (GraphPad Software, Inc., La Jolla, CA) using one-way ANOVA to compare each group to the appropriate control group.

[6] = Solubility in water or saline at room temperature, visual inspection; format: physicochemical
Text: Samples were visually inspected for clarity of the sample, any appearance of turbidity or haziness.

human GCGR = human GCGR (Homo sapiens, UniProt P47871); assay: Peptide-receptor mediated cAMP accumulation (LANCE Ultra cAMP) in CHO-K1 cells transfected with human GCGR; format: cell-based
human GCGR, sequence (P47871 26-477): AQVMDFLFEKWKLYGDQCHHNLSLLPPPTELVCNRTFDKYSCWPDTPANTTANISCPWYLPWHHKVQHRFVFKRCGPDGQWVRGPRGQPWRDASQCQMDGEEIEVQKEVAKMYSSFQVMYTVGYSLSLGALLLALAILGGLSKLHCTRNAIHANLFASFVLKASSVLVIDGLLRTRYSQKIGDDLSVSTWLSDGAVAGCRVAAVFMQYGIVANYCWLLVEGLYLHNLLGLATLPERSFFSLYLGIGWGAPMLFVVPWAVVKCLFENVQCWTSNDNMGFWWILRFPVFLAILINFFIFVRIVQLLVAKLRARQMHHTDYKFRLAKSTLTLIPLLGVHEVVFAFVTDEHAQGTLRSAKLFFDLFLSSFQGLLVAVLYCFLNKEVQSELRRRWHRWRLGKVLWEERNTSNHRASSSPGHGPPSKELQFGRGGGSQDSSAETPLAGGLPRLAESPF

[7] = rat, in vivo
in vivo = conditions: rat, iv
[8] = Intravenous bolus injection pharmacokinetics, clearance (CL), cyclic peptide glucagon analogs; conditions: rat, in vivo; male Wistar Han rats, single iv bolus 0.1 mg/kg; read-out: IV Bolus Clearance Kidney (CL)
Protocol: Peptides were administered as a single intravenous bolus dose to non-fasted male Wistar Han rats (n=3 per group) via jugular vein cannula. Compounds were formulated as solutions in either sterile saline, acidified saline (pH 2.0 or 4.5), or 5% DMSO in water and administered at a volume of 1.5 mL/kg and a final dose of 0.1 mg/kg. […] Plasma was prepared by centrifugation and stored at −80° C. until analysis.
Protein Precipitation: All 96-well plates were coated with a blocking agent to mitigate non-specific binding of peptides. Plasma samples (75 uL) were added to a 96-well plate containing 200 uL of 2:1 ethanol:acetonitrile containing 0.1% TFA and mixed well via aspiration. Plates were capped, vortex-mixed and centrifuged. Supernatants (215 uL) were transferred to a clean 96-well plate, evaporated to dryness under nitrogen flow and then reconstituted in 75 μL of 20% acetonitrile in water containing 0.10% formic acid.
Solid-Phase Extraction: Samples were diluted 3-fold with 5% NH4OH (aq) and loaded onto an Oasis MAX microElution plate (Waters Corp, Milford, MA) that had been pre-conditioned with 200 uL each of methanol and 5% NH4OH (aq). […]
All calibration standards were prepared in control rat plasma containing K2EDTA and protease inhibitor cocktail. […] Peptides were quantified my monitoring one or more product ions produced from a multiply charged parent ion.

[9] = rat, in vivo, iv
Protocol: Animals were anesthetized with halothane during catheterization of right saphenous vein (for peptide infusions) and right femoral artery (for blood sampling and monitoring of arterial pressure). Colonic temperature was measured and controlled. […] Arterial samples were collected every 30 min into heparinized Natelson capillaries, the plasma separated on a bench-top centrifuge and then frozen at −20° C. until assay.

[10] = hGLP1 pEC50 (cAMP mean (n = 3): 11 point curve starting at 1 nM, Table 3)
[11] = hGLP1 pEC50 (cAMP) mean (n = 9): 11 point curve starting at 500 uM, Table 2A

Compound: CC(C)C[C@H](NC(=O)[C@H](Cc1ccc(O)cc1)NC(=O)[C@H](CCCCN)NC(=O)[C@H](CO)NC(=O)[C@H](Cc1ccc(O)cc1)NC(=O)[C@H](CC(=O)O)NC(=O)[C@H](CO)NC(=O)[C@@H](NC(=O)[C@H](Cc1ccccc1)NC(=O)[C@@H](NC(=O)CNC(=O)[C@H](Cc1c[nH]cn1)NC(=O)[C@H](CO)NC(=O)[C@@H](N)Cc1ccc(O)cc1)[C@@H](C)O)[C@@H](C)O)C(=O)N[C@@H](CC(=O)O)C(=O)NC(C)(C)C(=O)N[C@@H](CCCCN)C(=O)N[C@@H](CO)C(=O)N[C@@H](C)C(=O)N[C@@H](CCC(N)=O)C(=O)N[C@@H](CCC(=O)O)C(=O)N[C@@H](Cc1ccccc1)C(=O)N[C@H](C(=O)NC(C)(C)C(=O)N[C@@H](Cc1c[nH]c2ccccc12)C(=O)N[C@@H](CC(C)C)C(=O)N[C@@H](CCC(=O)O)C(=O)N[C@@H](CC(=O)O)C(=O)N[C@@H](CCC(=O)O)C(=O)N1CCC[C@H]1C(=O)N[C@@H](CO)C(=O)N[C@@H](CO)C(=O)NCC(=O)N[C@@H](C)C(=O)N1CCC[C@H]1C(=O)N1CCC[C@H]1C(=O)N1CCC[C@H]1C(=O)N[C@@H](CO)C(=O)O)C(C)C [Compound A2]
- clearance [1]: 10.8 mL/min/kg
- activation profile at the human GLP-1 receptor (GLP-1R) (human GLP-1R; FIG. 1B): inactive on GLP-1R
- EC50 (human GLP-1R; [10]): 3980 nM
- EC50 (human GLP-1R; [11]): 3980 nM
- clearance compared with exenatide and glucagon ([2]; FIG. 7): less than that of exenatide and glucagon
- mode of clearance ([2]; FIG. 7, Table 5 values close to GFR): cleared from plasma via glomerular filtration
- CL ([2]; Table 5, intravenous infusion rate 10 mcg/kg/hr, rat): 11.3 mL/min/kg
- clearance ([2]; rat, in vivo, iv, 10 mcg/kg/hr, CL mL/min/kg, Table 5, intravenous infusion rate 10 mcg/kg/hr): 10.8 mL/min/kg
- CL (FIGURE 2B): 12.3 ± 0.6 mL/min/kg
- mode of clearance ([3]; FIG. 6, steady state plasma concentration vs inulin/GFR): consistent with being via glomerular filtration; also recorded: cleared mainly by glomerular filtration
- subcutaneous bioavailability ([3]; sc osmotic minipump, rat): high
- Stability 1 mg/ml in water at 37 degC ([4]; Table 3, % printed only in cells of A1-A6): >84%
- weight loss compared to vehicle control after 13 days ([5]; 0.01 mg/kg/day): 3.7%
- weight loss compared to vehicle control after 13 days ([5]; 0.03 mg/kg/day): 3.9%
- weight loss compared to vehicle control after 13 days ([5]; 0.1 mg/kg/day): 8.6%
- weight loss compared to vehicle control after 13 days ([5]; 0.3 mg/kg/day): 23.7%
- ED50 of weight loss [5]: 271 µg/kg/day
- common maximal weight loss response [5]: 27.2%
- solubility ([6]; Table 3, room temperature, read-out: Solubility in water): > 200 mg/mL
- EC50 (human GCGR): 0.002 nM
- activation profile at the human glucagon receptor (GCGR) (human GCGR; FIG. 1A): nearly equipotent on GCGR
- hGCGR pEC50 (cAMP mean (n = 3): 11 point curve starting at 1 nM) (human GCGR; Table 3): 11.7

Compound: CC(C)C[C@H](NC(=O)[C@H](Cc1ccc(O)cc1)NC(=O)[C@H](CCCCN)NC(=O)[C@H](CO)NC(=O)[C@H](Cc1ccc(O)cc1)NC(=O)[C@H](CC(=O)O)NC(=O)[C@H](CO)NC(=O)[C@@H](NC(=O)[C@H](Cc1ccccc1)NC(=O)[C@@H](NC(=O)CNC(=O)[C@H](CCC(N)=O)NC(=O)[C@H](CO)NC(=O)[C@@H](N)Cc1ccc(O)cc1)[C@@H](C)O)[C@@H](C)O)C(=O)N[C@@H](CC(=O)O)C(=O)N[C@@H](C)C(=O)N[C@@H](C)C(=O)N[C@@H](CCCNC(=N)N)C(=O)N[C@@H](C)C(=O)N[C@@H](CCC(N)=O)C(=O)N[C@@H](CCC(=O)O)C(=O)N[C@@H](Cc1ccccc1)C(=O)N[C@H](C(=O)N[C@@H](CCCCN)C(=O)N[C@@H](Cc1c[nH]c2ccccc12)C(=O)N[C@@H](CC(C)C)C(=O)N[C@@H](CCC(=O)O)C(=O)N[C@@H](CC(=O)O)C(=O)N[C@@H](CCC(=O)O)C(=O)N1CCC[C@H]1C(=O)N[C@@H](CCCCN)C(=O)N[C@@H](CO)C(=O)N[C@@H](CCCCN)C(=O)N[C@@H](CO)C(=O)N1CCC[C@H]1C(=O)N1CCC[C@H]1C(=O)N1CCC[C@H]1C(=O)N[C@@H](CO)C(N)=O)C(C)C [Compound A3] (H-YSQGTFTSDYSKYLDAARAQEFVKWLEDEPKSKSPPPS-NH2; N-terminus assumed)
- mode of clearance [7]: cleared from plasma via glomerular filtration
- EC50 (human GLP-1R; [10]): 200 nM
- EC50 (human GLP-1R; [11]): 200 nM
- clearance (in vivo): 10.7 mL/min/kg
- CL (FIGURE 2B): 12.5 ± 1.6 mL/min/kg
- Stability 1 mg/ml in water at 37 degC [4]: >64%
- ED50 of weight loss [5]: 535 µg/kg/day
- common maximal weight loss response [5]: 27.2%
- solubility ([6]; Solubility in water mg/ml): > 200 mg/mL

Compound: CC(C)C[C@H](NC(=O)[C@H](Cc1ccc(O)cc1)NC(=O)[C@H](CCCCN)NC(=O)[C@H](CO)NC(=O)[C@H](Cc1ccc(O)cc1)NC(=O)[C@H](CC(=O)O)NC(=O)[C@H](CO)NC(=O)[C@@H](NC(=O)[C@H](Cc1ccccc1)NC(=O)[C@@H](NC(=O)CNC(=O)[C@H](CCC(N)=O)NC(=O)[C@H](CO)NC(=O)[C@@H](N)Cc1ccc(O)cc1)[C@@H](C)O)[C@@H](C)O)C(=O)N[C@@H](CC(=O)O)C(=O)N[C@@H](CO)C(=O)N[C@H]1CCCCNC(=O)CC[C@@H](C(=O)N[C@@H](Cc2ccccc2)C(=O)N[C@H](C(=O)N[C@H]2CCCCNC(=O)CC[C@@H](C(=O)N[C@H](C(=O)O)[C@@H](C)O)NC(=O)[C@H](CC(=O)O)NC(=O)[C@H](CC(C)C)NC(=O)[C@H](Cc3c[nH]c4ccccc34)NC2=O)C(C)C)NC(=O)[C@H](CCC(N)=O)NC(=O)[C@H](C)NC(=O)[C@H](CCCNC(=N)N)NC1=O [Compound A104] (H-YSQGTFTSDYSKYLDSKRAQEFVKWLDET-OH; lactam 17-21, 24-28)
- clearance [8]: 80.7 ± 15.4 mL/min/kg

Compound: CC(C)C[C@H](NC(=O)[C@H](Cc1ccc(O)cc1)NC(=O)[C@H](CCCCN)NC(=O)[C@H](CO)NC(=O)[C@H](Cc1ccc(O)cc1)NC(=O)[C@H](CC(=O)O)NC(=O)[C@H](CO)NC(=O)[C@@H](NC(=O)[C@H](Cc1ccccc1)NC(=O)[C@@H](NC(=O)CNC(=O)[C@H](CCC(N)=O)NC(=O)[C@H](CO)NC(=O)[C@@H](N)Cc1ccc(O)cc1)[C@@H](C)O)[C@@H](C)O)C(=O)N[C@@H](CC(=O)O)C(=O)N[C@@H](CO)C(=O)N[C@H]1CCCCNC(=O)CC[C@@H](C(=O)N[C@@H](Cc2ccccc2)C(=O)N[C@H](C(=O)N[C@H]2CCCCNC(=O)CC[C@@H](C(=O)N[C@H](C(=O)O)[C@@H](C)O)NC(=O)[C@H](CCC(N)=O)NC(=O)[C@H](CC(C)C)NC(=O)[C@H](Cc3c[nH]c4ccccc34)NC2=O)C(C)C)NC(=O)[C@H](CCC(N)=O)NC(=O)[C@H](C)NC(=O)[C@H](CCCNC(=N)N)NC1=O [Compound A105] (H-YSQGTFTSDYSKYLDSKRAQEFVKWLQET-OH; lactam 17-21, 24-28)
- clearance [8]: 67 ± 7.3 mL/min/kg

Compound: GLP-1: glucagon-like peptide-1; infused as GLP-1-(7-36)amide in Example 13
- Plasma clearance rates [9]: 34±4 to 38±3
